Measured values reported in patent US9695154B2, “Heteroaryl inhibitors of sumo activating enzyme” (MILLENNIUM PHARMACEUTICALS, INC., priority 2013, dated 2017).

Molecular target: T1, recombinant human SAE enzyme (Homo sapiens, UniProt Q9UBT2)
T1 sequence (Q9UBT2 1-640): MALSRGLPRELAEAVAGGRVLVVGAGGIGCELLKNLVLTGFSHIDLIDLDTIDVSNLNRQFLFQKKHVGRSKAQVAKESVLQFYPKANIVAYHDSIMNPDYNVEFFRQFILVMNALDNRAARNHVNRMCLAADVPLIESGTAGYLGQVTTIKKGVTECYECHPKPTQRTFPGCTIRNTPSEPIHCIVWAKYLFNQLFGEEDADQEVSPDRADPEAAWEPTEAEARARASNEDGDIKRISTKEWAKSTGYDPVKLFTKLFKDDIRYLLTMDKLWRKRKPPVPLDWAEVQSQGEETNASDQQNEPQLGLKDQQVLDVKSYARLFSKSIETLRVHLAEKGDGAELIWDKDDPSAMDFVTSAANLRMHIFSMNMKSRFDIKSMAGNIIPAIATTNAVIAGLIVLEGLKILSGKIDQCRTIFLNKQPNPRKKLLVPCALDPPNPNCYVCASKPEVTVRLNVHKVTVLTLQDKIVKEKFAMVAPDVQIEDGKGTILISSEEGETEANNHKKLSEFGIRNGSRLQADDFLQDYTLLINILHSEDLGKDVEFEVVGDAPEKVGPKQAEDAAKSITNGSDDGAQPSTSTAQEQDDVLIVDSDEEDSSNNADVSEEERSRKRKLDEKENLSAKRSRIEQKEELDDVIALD
T1 sequence (Q9UBE0 1-346 partner): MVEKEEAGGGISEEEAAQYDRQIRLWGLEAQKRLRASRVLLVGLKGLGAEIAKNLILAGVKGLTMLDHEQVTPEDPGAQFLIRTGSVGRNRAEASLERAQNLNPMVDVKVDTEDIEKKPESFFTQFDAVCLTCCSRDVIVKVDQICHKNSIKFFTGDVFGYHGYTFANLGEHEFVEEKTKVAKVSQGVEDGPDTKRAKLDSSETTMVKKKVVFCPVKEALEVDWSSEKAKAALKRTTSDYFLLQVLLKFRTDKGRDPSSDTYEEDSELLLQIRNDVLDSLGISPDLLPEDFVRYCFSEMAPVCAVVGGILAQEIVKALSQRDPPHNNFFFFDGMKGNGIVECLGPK
Test: SAE HTRF Enzyme Assay
Format: biochemical
Settings: for IC50: class symbols A-C; for inhibition at 0.111 µM: compound concentration 0.111 μM, read-out: Percent Inhibition
How it was run: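 HTRF signal from Eu-anti-Flag/APC-anti-GST pairs reports Sumo-Flag loaded onto Ubc9-GST by 0.11 nM SAE. Reaction: 0.5 μM ATP, 0.125 μM Sumo-Flag, 0.01 μM Ubc9-GST, 5 mM MgCl2, pH 7.5, 105 min, 24° C. Single-concentration % inhibition or IC50 reported.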

SMILES | IC50 [nM] | inhibition at 0.111 µM [%]
NS(=O)(=O)OC[C@H]1C[C@@H](Nc2ccncc2C(=O)c2ccn(Cc3cccc(Cl)c3)c2)C[C@@H]1O [Compound I-201, {(1R,2S,4R)-4-[(3-{[1-(3-chlorobenzyl)-1H-pyrrol-3-yl]carbonyl}pyridin-4-yl)amino]-2-hydroxycyclopentyl}methyl sulfamate] | < 10 | 98
NS(=O)(=O)OC[C@H]1C[C@@H](Nc2ncncc2C(=O)c2ccn(Cc3c(F)c(F)c(F)c(F)c3F)n2)C[C@@H]1O [Compound I-202, {(1R,2S,4R)-2-hydroxy-4-[(5-{[1-(pentafluorobenzyl)-1H-pyrazol-3-yl]carbonyl}pyrimidin-4-yl)amino]cyclopentyl}methyl sulfamate] | 10 to 100 | 83
NS(=O)(=O)OC[C@H]1C[C@@H](Nc2ncncc2C(=O)c2ccn(Cc3ccccc3)n2)C(F)(F)[C@@H]1O [Compound I-203, [(1R,2R,4R)-4-({5-[(1-benzyl-1H-pyrazol-3-yl)carbonyl]pyrimidin-4-yl}amino)-3,3-difluoro-2-hydroxycyclopentyl]methyl sulfamate] | < 10 | 94
NS(=O)(=O)OC[C@H]1C[C@@H](Nc2ncncc2C(=O)c2ccn(Cc3ccc(Cl)c(Br)c3)n2)[C@H](O)[C@@H]1O [Compound I-204, {(1R,2R,3S,4R)-4-[(5-{[1-(3-bromo-4-chlorobenzyl)-1H-pyrazol-3-yl]carbonyl}pyrimidin-4-yl)amino]-2,3-dihydroxycyclopentyl}methyl sulfamate] | < 10 | 99
NS(=O)(=O)OC[C@H]1C[C@@H](Nc2ncncc2C(=O)c2ccn(-c3ccccc3)n2)C[C@@H]1O [Compound I-205, [(1R,2S,4R)-2-Hydroxy-4-({5-[(1-phenyl-1H-pyrazol-3-yl)carbonyl]pyrimidin-4-yl}amino)cyclopentyl]methyl sulfamate] | 10 to 100 | 60
NS(=O)(=O)OC[C@H]1C[C@@H](Nc2ncncc2C(=O)c2ccn(Cc3ccccc3Cl)n2)C[C@@H]1O [Compound I-206, {(1R,2S,4R)-4-[(5-{[1-(2-chlorobenzyl)-1H-pyrazol-3-yl]carbonyl}pyrimidin-4-yl)amino]-2-hydroxycyclopentyl}methyl sulfamate] | < 10 | 96
NS(=O)(=O)OC[C@H]1C[C@@H](Nc2ncncc2C(=O)c2ccn(Cc3cc(Br)ccc3Cl)n2)[C@@H](F)[C@@H]1O [Compound I-207, {(1R,2R,3R,4R)-4-[(5-{[1-(5-bromo-2-chlorobenzyl)-1H-pyrazol-3-yl]carbonyl}pyrimidin-4-yl)amino]-3-fluoro-2-hydroxycyclopentyl}methyl sulfamate] | < 10 | 99
Cc1cc(Cn2ccc(C(=O)c3cncnc3N[C@@H]3C[C@H](COS(N)(=O)=O)[C@@H](O)[C@@H]3F)c2)on1 [Compound I-208, [(1R,2R,3R,4R)-3-fluoro-2-hydroxy-4-{[5-({1-[(3-methylisoxazol-5-yl)methyl]-1H-pyrrol-3-yl}carbonyl)pyrimidin-4-yl]amino)cyolopentyl]methyl sulfomate] | < 10 | 95
NS(=O)(=O)OC[C@H]1C[C@@H](Nc2ncncc2C(=O)c2ccn(Cc3ccc(C(F)(F)F)o3)c2)[C@@H](F)[C@@H]1O [Compound I-209, [(1R,2R,3R,4R)-3-fluoro-2-hydroxy-4-({5-[(1-{[5-(trifluoromethyl)-2-furyl]methyl}-1H-pyrrol-3-yl)carbonyl]pyrimidin-4-yl}amino)cyclopentyl]methyl sulfamate] | < 10 | 99
Cc1ccc(Cn2ccc(C(=O)c3cncnc3N[C@@H]3C[C@H](COS(N)(=O)=O)[C@@H](O)C3)n2)cc1F [Compound I-210, {(1R,2S,4R)-4-[(5-{[1-(3-Fluoro-4-methylbenzyl)-1H-pyrazol-3-yl]carbonyl}pyrimidin-4-yl)amino]-2-hydroxycyclopentyl}methyl sulfamate] | < 10 | 98
NS(=O)(=O)OC[C@H]1C[C@@H](Nc2ncncc2C(=O)c2ccn(Cc3ccc(F)c(OC(F)(F)F)c3)c2)C[C@@H]1O [Compound I-211, [(1R,2S,4R)-4-{[5-({1-[4-fluoro-3-(trifluoromethoxy)benzyl]-1H-pyrrol-3-yl}carbonyl)pyrimidin-4-yl]amino}-2-hydroxycyclopentyl]methyl sulfamate] | < 10 | 97
NS(=O)(=O)OC[C@H]1C[C@@H](Nc2ncncc2C(=O)c2ccn(Cc3ccc(F)c(F)c3)n2)C[C@@H]1O [Compound I-212, {(1R,2S,4R)-4-[(5-{[1-(3,4-difluorobenzyl)-1H-pyrazol-3-yl]carbonyl}pyrimidin-4-yl)amino]-2-hydroxycyclopentyl}methyl sulfamate] | < 10 | 95
NS(=O)(=O)OC[C@H]1C[C@@H](Nc2ncncc2C(=O)c2ccn(Cc3cc(F)cc(C(F)(F)F)c3)c2)C[C@@H]1O [Compound I-213, [(1R,2S,4R)-4-{[5-({1-[3-fluoro-5-(trifluoromethyl)benzyl]-1H-pyrrol-3-yl}carbonyl)pyrimidin-4-yl]amino}-2-hydroxycyclopentyl]methyl sulfamate] | < 10 | 97
NS(=O)(=O)OC[C@H]1C[C@@H](Nc2ncncc2C(=O)c2ccn(Cc3cn4ccccc4n3)n2)C[C@@H]1O [Compound I-214, {(1R,2S,4R)-2-hydroxy-4-[(5-{[1-(imidazo[1,2-a]pyridin-2-ylmethyl)-1H-pyrazol-3-yl]carbonyl}pyrimidin-4-yl)amino]cyclopentyl}methyl sulfamate] | < 10 | 98
NS(=O)(=O)OC[C@H]1C[C@@H](Nc2ncncc2C(=O)c2ccn(Cc3cccc(Cl)c3)n2)C[C@@H]1O [Compound I-215, {(1R,2S,4R)-4-[(5-{[1-(3-chlorobenzyl)-1H-pyrazol-3-yl]carbonyl}pyrimidin-4-yl)amino]-2-hydroxycyclopentyl}methyl sulfamate] | < 10 | 99
Cn1cccc(Cn2ccc(C(=O)c3cncnc3N[C@@H]3C[C@H](COS(N)(=O)=O)[C@@H](O)[C@@H]3F)c2)c1=O [Compound I-216, [(1R,2R,3R,4R)-3-fluoro-2-hydroxy-4-{[5-({1-[(1-methyl-2-oxo-1,2-dihydropyridin-3-yl)methyl]-1H-pyrrol-3-yl}carbonyl)pyrimidin-4-yl]amino}cyclopentyl]methyl sulfamate] | < 10 | 97
NS(=O)(=O)OC[C@H]1C[C@@H](Nc2ncncc2C(=O)c2ccn(Cc3ccccc3)c2)[C@H](O)[C@@H]1O [Compound I-217, [(1R,2R,3S,4R)-4-({5-[(1-Benzyl-1H-pyrrol-3-yl)carbonyl]pyrimidin-4-yl}amino)-2,3-dihydroxycyclopentyl]methyl sulfamate] | < 10 | 98
NS(=O)(=O)OC[C@H]1C[C@@H](Nc2ncncc2C(=O)c2ccn(Cc3ccc(Cl)c(OC(F)(F)F)c3)n2)[C@@H](F)[C@@H]1O [Compound I-218, [(1R,2R,3R,4R)-4-{[5-({1-[4-chloro-3-(trifluoromethoxy)benzyl]-1H-pyrazol-3-yl}carbonyl)pyrimidin-4-yl]amino}-3-fluoro-2-hydroxycyclopentyl]methyl sulfamate] | 10 to 100 | 89
NS(=O)(=O)OC[C@H]1C[C@@H](Nc2ncncc2C(=O)c2ccn(Cc3cccc(F)c3F)n2)C[C@@H]1O [Compound I-219, {(1R,2S,4R)-4-[(5-{[1-(2,3-difluorobenzyl)-1H-pyrazol-3-yl]carbonyl}pyrimidin-4-yl)amino]-2-hydroxycyclopentyl}methyl sulfamate] | < 10 | 99
CC(C)n1ccc(C(=O)c2cncnc2N[C@@H]2C[C@H](COS(N)(=O)=O)[C@@H](O)[C@H]2O)n1 [Compound I-220, [(1R,2R,3S,4R)-2,3-dihydroxy-4-({5-[(1-isopropyl-1H-pyrazol-3-yl)carbonyl]pyrimidin-4-yl}amino)cyclopentyl]methyl sulfamate] | 10 to 100 | 57
NS(=O)(=O)OC[C@H]1C[C@@H](Nc2ncncc2C(=O)c2ccn(Cc3cccc(I)c3)n2)[C@H](O)[C@@H]1O [Compound I-221, {(1R,2R,3S,4R)-2,3-dihydroxy-4-[(5-{[1-(3-iodobenzyl)-1H-pyrazol-3-yl]carbonyl}pyrimidin-4-yl)amino]cyclopentyl}methyl sulfamate] | < 10 | 100
